The source of these data is patent US20160018400A1, “DIAGNOSTIC AND PROGNOSTIC BIOMARKERS FOR PROSTATE CANCER AND OTHER DISORDERS” (CANCER RESEARCH TECHNOLOGY LIMITED, priority 2013, published 2016).

Assay [1] deals with LNCaP cells. Description: Confocal microscopy of VPS13A vesicle association/fusion with LAMP2-positive lysosomes. Format: cell-based. The method, then:
FIG. […] The cells were then fixed and stained for LAMP2 and VPS13A. Using the 100× lens, the number of lysosomes in 10 fields of view were counted. Then the number of VPS13A fusion events was counted in the same field of view. A fusion event was classed as a VPS13A vesicle touching or integrated into a LAMP2 positive lysosome. *Data are shown normalised to the number of lysosomes in each field of view. P-values were calculated using a Mann-Whitney 2-tailed t-test.
Cells were fixed and stained as before using anti-VPS13A antibody (1:50, Human Protein Atlas) and LAMP2 antibody (1:500, BD Biosciences) (8). Cells were imaged using Alexafluor 594 and 488 secondary antibodies (Molecular Probes) and mounted with DAPI. All images were obtained using a Nikon Eclipse confocal microscope using a 100× objective. […]

Assay [2] has as its system VPS13A. Description: VPS13A protein expression in LNCaP cells after calcium modifiers (SDS-PAGE / western blot). It is filed as cell-based. Particulars: LNCaP cells treated for 8 hours with 10 μM; lysates probed for VPS13A and tubulin. The method, then:
Non-targeting control LNCaP cells or siVPS13A cells were treated for 8 hours with 10 μM BAPTA (B), calcimycin (Cal) or control (C). Protein lysates were separated by SDS-PAGE and probed for VPS13A and tubulin.
Cells were fixed and stained as before using anti-VPS13A antibody (1:50, Human Protein Atlas) and LAMP2 antibody (1:500, BD Biosciences) (8). Cells were imaged using Alexafluor 594 and 488 secondary antibodies (Molecular Probes) and mounted with DAPI. All images were obtained using a Nikon Eclipse confocal microscope using a 100× objective. For calcium modifying experiments, LNCaP cells were grown as before to ˜50% confluence before being treated for 8 hours with 10 μM of the calcium ionophore, calcimycin (Invitrogen) or 10 μM of the calcium chelating agent 1,2-bis(o-aminophenoxy)ethane-N,N,N′,N′-tetraacetic acid (BAPTA) (Invitrogen) (Whitaker et al., 2007).
Protein lysates were produced as described (8) and separated by SDS-PAGE before blotting for VPS13A (1:1000, Human Protein Atlas), FAK (1:1000, Cell Signaling Technology), pTyr397-FAK (1:1000, Cell Signaling Technology) or tubulin (1:2000, Abcam).
(In general: In western blotting, separated proteins are transferred to a membrane and probed.)

On to `CO/C1=C\C(C)=C\[C@@H](C)[C@@H](O)[C@@H](C)C/C(C)=C/C=C/[C@H](OC)[C@@H]([C@@H](C)[C@@H](O)[C@H](C)[C@@]2(O)C[C@@H](O)[C@H](C)[C@@H](C(C)C)O2)OC1=O` [bafilomycin], for which the “VPS13A vesicle integration into the lysosome membrane” value in assay [1] (cells treated with bafilomycin, LAMP2 staining) is recorded as “VPS13A vesicles are seen integrated into the lysosome membrane”.
As to `CNc1ccc2oc(C[C@H]3O[C@@]4(CC[C@H]3C)O[C@H]([C@H](C)C(=O)c3ccc[nH]3)[C@H](C)C[C@H]4C)nc2c1C(=O)O` [calcimycin], in assay [1] (LNCaP cells, LAMP2 and VPS13A staining, p=0.0004), the “number of VPS13A vesicles that associated with lysosomes (fusion events, normalised to number of lysosomes)” value was “highly significant decrease”. The “intracellular levels of VPS13A (VPS13A protein expression)” value in assay [2] is reported as “increase in the intracellular levels of VPS13A”.
As for `O=C(O)CN(CC(=O)O)c1ccccc1OCCOc1ccccc1N(CC(=O)O)CC(=O)O` [BAPTA, 1,2-bis(o-aminophenoxy)ethane-N,N,N′,N′-tetraacetic acid], the “intracellular levels of VPS13A (VPS13A protein expression)” value in assay [2] is “no significant change in VPS13A expression”.
